Data reported in article PMC2831097, “Inhibition of L-Arginine Metabolizing Enzymes by L-Arginine-Derived Advanced Glycation End Products” (Journal of Clinical Biochemistry and Nutrition, 2010).
Where two headings read alike, the source gives them in different places.

Legend:
[1] = biological target: T1, recombinant nNOS (Rattus norvegicus, UniProt P29476); test: NOS activity assay, conversion of L-[14C(U)]-arginine to L-[14C(U)]-citrulline, nNOS; assay type: biochemical; details: 50 µM L-arginine, 30 min at 37°C, pH 7.4; means ± SD (n = 4)
T1 construct: purchased Cayman Chemicals
Source text: (§1) L-Arginine, ADMA, N^G-hydroxy-L-arginine (NOHA), nicotinamide adenine dinucleotide phosphate reduced form (NADPH), flavin adenine dinucleotide (FAD), flavin mononucleotide (FMN), (6R)-5,6,7,8-tetrahydrobiopterin (BH4), recombinant eNOS (from bovine), iNOS (from mouse macrophage), Dowex® AG50W-X8 cation-exchange resin (mesh size, 100–200) were all purchased from Sigma Chemicals (St. Louis, MO). Ultima Gold XR scintillation liquid was from PerkinElmer (Shelton, CA). Recombinant nNOS (from rat) and N^G-hydroxy-nor-arginine (nor-NOHA) were obtained from Cayman Chemicals. Arginase (from bovine liver) was from Alexis Biochemicals (Lausen, Switzerland). […] All other chemicals were obtained from Wako Pure Chemical Industries, Osaka, Japan.
(§2) The NOS activities were determined by monitoring the conversion of L-[^14C(U)]-arginine (Moravek, Brea, CA) to L-[^14C(U)]-citrulline as previously described. Recombinant enzymes of three isoforms of NOS (specific activity: eNOS 0.03, nNOS 2.9, iNOS 0.62 units/mg protein) (10 µl) were added to a reaction mixture (final volume of 100 µl) consisting of 50 mM HEPES buffer (pH 7.4), 1 mM NADPH, 4 µM FAD, 4 µM FMN, 10 µM BH4, 1 mg/L calmodulin, 2.5 mM CaCl2, 50 µM L-arginine and 0.5 µCi/ml of L-[^14C(U)]-arginine (specific activity: 8.14–11.1 GBq/mmol). After incubation for 30 min at 37°C, the reactions were terminated by addition of 0.5 ml of 20 mM HEPES (pH 5.5) containing 2 mM EDTA and 2 mM EGTA. Samples were passed through a 1 ml column of Dowex AG50W-X8 (Na^+-form) to remove unconverted L-[^14C(U)]-arginine. L-[^14C(U)]-Citrulline was eluted twice with 1 ml of distilled water, and the eluted fractions mixed with 10 ml of cocktail (Ultima Gold XR) were quantified using a liquid scintillation counter. A reaction mixture containing L-[^14C(U)]-arginine without the enzyme was incubated as a control to determine background counts.

[2] = biological target: T2, recombinant iNOS (Mus musculus, UniProt P29477); test: NOS activity assay, conversion of L-[14C(U)]-arginine to L-[14C(U)]-citrulline, iNOS; assay type: biochemical; details: 50 µM L-arginine, 30 min at 37°C, pH 7.4; means ± SD (n = 4)
T2 construct: purchased Sigma Chemicals (St. Louis, MO)
Source text: as §1, §2

[3] = biological target: T3, recombinant eNOS (Bos taurus, UniProt P29473); test: NOS activity assay, conversion of L-[14C(U)]-arginine to L-[14C(U)]-citrulline, eNOS; assay type: biochemical, bovine; details: 50 µM L-arginine, 30 min at 37°C, pH 7.4; means ± SD (n = 4)
T3 construct: purchased Sigma Chemicals (St. Louis, MO)
Source text: as §1, §2

[4] = biological target: T4, dimethylarginine dimethylaminohydrolase (DDAH) (Rattus norvegicus, UniProt O08557); test: DDAH activity assay, conversion of L-[3H]-NMMA to L-[3H]-citrulline by rat kidney homogenate; assay type: biochemical
T4 construct: from tissue; host or cells: rat kidney homogenate supernatant
Method: The DDAH activity was determined by monitoring the conversion of L-[4,5-^3H]-NMMA (American Radiolabeled Chemicals, Inc., St. Louis, MO) to L-[^3H]-citrulline as previously described. Rat kidney tissues (0.5 g) were homogenized in 1 ml of ice-cold 0.1 M sodium phosphate buffer (SPB, pH 6.5), and then centrifuged at 10,000 rpm for 5 min at 4°C. The supernatants were analyzed for protein content using a BCA protein reagent kit with bovine serum albumin as the standard. The supernatants were diluted with SPB to 1 mg protein in 50 µl, and then were added to a reaction mixture (a final volume of 100 µl) containing 0.1 M SPB (pH 6.5) and 0.1 µCi/ml of L-[^3H]-NMMA (specific activity: 1.48–2.96 TBq/mmol). After incubation for 1 h at 37°C, the reactions were terminated by keeping the tubes on ice for 5 min. Samples were then passed through a 1 ml column of Dowex AG50W-8X (Na^+-form) to remove unmetabolized L-[^3H]-NMMA. L-[^3H]-Citrulline was eluted twice with 1 ml of distilled water, and the eluted fractions mixed with 10 ml of cocktail (Ultima Gold XR) were quantified using a liquid scintillation counter. A reaction mixture containing L-[^3H]-NMMA in the absence of enzyme was added to the Dowex column to determine background counts. The effects of arginine derivatives on the enzyme activities in the presence and absence of the test compounds at various concentrations were examined.

[5] = biological target: T5, arginase (Bos taurus, UniProt Q2KJ64); test: Arginase activity assay, conversion of L-[guanidine-14C]-arginine to [14C]-urea; assay type: biochemical, bovine; details: for IC50: 1 mM MnCl2, pH 9.6, 1 h at 37°C, means ± SD (n = 4); for inhibitory efficiency for arginase, fold weaker than NOHA: compared with NOHA (IC50 340 µM)
T5 construct: purchased Alexis Biochemicals (Lausen, Switzerland)
T5 sequence (Q2KJ64 1-322): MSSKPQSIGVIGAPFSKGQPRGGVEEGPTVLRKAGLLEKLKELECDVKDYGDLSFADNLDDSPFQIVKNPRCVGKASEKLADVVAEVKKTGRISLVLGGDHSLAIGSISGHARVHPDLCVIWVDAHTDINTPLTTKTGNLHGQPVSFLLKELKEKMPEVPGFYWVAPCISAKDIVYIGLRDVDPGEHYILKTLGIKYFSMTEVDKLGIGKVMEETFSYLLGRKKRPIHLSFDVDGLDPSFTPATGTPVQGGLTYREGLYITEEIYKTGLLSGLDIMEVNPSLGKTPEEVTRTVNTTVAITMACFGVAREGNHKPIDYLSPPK
Source text: L-Arginine, ADMA, N^G-hydroxy-L-arginine (NOHA), nicotinamide adenine dinucleotide phosphate reduced form (NADPH), flavin adenine dinucleotide (FAD), flavin mononucleotide (FMN), (6R)-5,6,7,8-tetrahydrobiopterin (BH4), recombinant eNOS (from bovine), iNOS (from mouse macrophage), Dowex® AG50W-X8 cation-exchange resin (mesh size, 100–200) were all purchased from Sigma Chemicals (St. Louis, MO). Ultima Gold XR scintillation liquid was from PerkinElmer (Shelton, CA). Recombinant nNOS (from rat) and N^G-hydroxy-nor-arginine (nor-NOHA) were obtained from Cayman Chemicals. Arginase (from bovine liver) was from Alexis Biochemicals (Lausen, Switzerland). L-NMMA was from Calbiochem, Darmstadt, Germany. All other chemicals were obtained from Wako Pure Chemical Industries, Osaka, Japan.
Assays for arginase activity were performed by monitoring the conversion of L-[guanidine-^14C]-arginine (Moravek, Brea, CA) to [^14C]-urea as previously described. Recombinant arginase (0.5 µg of protein, specific activity: 0.094 units/mg protein) (10 µl) was added to a mixture (final volume of 100 µl) containing 10 mM Tris-HCl buffer, pH 9.6, 1 mM MnCl2, and 0.16 µCi/ml of L-[guanidine-^14C]-arginine (specific activity: 1.85–2.22 GBq/mmol). After incubation for 1 h at 37°C, the reactions were terminated by addition of 0.4 ml of stop buffer containing 250 mM sodium acetate and 100 mM urea, pH 4.5. Samples were then passed through a 1 ml column of Dowex AG50W-8X (Na^+-form) to remove unmetabolized L-[guanidine-^14C]-arginine. [^14C]-Urea was eluted twice with 1 ml of distilled water, and the eluted fractions mixed with 10 ml of cocktail (Ultima Gold XR) were quantified using a liquid scintillation counter. A reaction mixture containing L-[guanidine-^14C]-arginine in the absence of enzyme was incubated as a control to determine background counts. The inhibitory effects of arginase were examined in the presence and absence of the test compounds at various concentrations.

[6] = rat kidney extracts, SPB pH 6.5, 1 h at 37°C, means ± SD (n = 4), read-out: IC50 DDAH

T4 sequence (O08557 whole entry): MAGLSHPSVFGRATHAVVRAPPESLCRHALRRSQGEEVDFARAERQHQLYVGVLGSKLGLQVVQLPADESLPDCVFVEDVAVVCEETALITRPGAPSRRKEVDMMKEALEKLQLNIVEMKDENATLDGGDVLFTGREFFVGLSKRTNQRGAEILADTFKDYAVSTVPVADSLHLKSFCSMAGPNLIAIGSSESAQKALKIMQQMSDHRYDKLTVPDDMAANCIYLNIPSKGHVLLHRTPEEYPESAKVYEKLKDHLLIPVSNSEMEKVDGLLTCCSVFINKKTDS

Structure (SMILES)	IC50 [1]	IC50 [2]	IC50 [3]	IC50 [4]	IC50 [5]	inhibitory efficiency for arginase, fold weaker than NOHA [5]	IC50 [4, 6]
CN(C)C(=N)NCCCC(N)C(=O)O [ADMA, asymmetric N^G,N^G-dimethyl-L-arginine, reference compound]	0.023 mM	0.024 ± 0.001 mM	0.016 ± 0.009 mM	–	–	–	–
CC(NC(=N)NCCCC(N)C(=O)O)C(=O)O (stereo not shown) [CEA, N^ω-carboxyethyl-arginine]	> 5 mM	> 5 mM	3.87 ± 0.68 mM	> 5 mM	> 5 mM	–	–
N=C(NCCCC(N)C(=O)O)NCC(=O)O (stereo not shown) [CMA, N^ω-Carboxymethyl-arginine]	> 5 mM	1.16 ± 0.04 mM	0.83 ± 0.036 mM	> 5 mM	1.47 ± 0.12 mM	approximately 3 fold	–
NC(CCCCNCC(=O)O)C(=O)O (stereo not shown) [CML, carboxymethyl-lysine]	1.93 ± 0.3 mM	> 5 mM	> 5 mM	–	1.06 ± 0.06 mM	approximately 3 fold	> 5 mM
CC1NC(NCCCC(N)C(=O)O)=NC1=O (stereo not shown) [MG-H1, N^δ-(5-hydro-5-methyl-4-imidazolon-2-yl)-ornithine]	4.17 ± 0.38 mM	2.97 ± 0.56 mM	1.28 ± 0.075 mM	–	> 5 mM	–	> 5 mM
NC(=NCCCC(N)C(=O)O)NO [NOHA, N^G-hydroxy-L-arginine, reference compound]	–	–	–	–	0.34 ± 0.012 mM	–	–
N=C(NO)NCC[C@H](N)C(=O)O [Nor-NOHA, N^G-hydroxy-nor-arginine, reference compound]	–	–	–	1.77 ± 0.25 mM	0.23 ± 0.026 mM	–	–
